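Step 1: Grow cells in 96-well plates. Step 2: Expose to compound for 48 hours at 5 concentrations. Step 3: Interpolate endpoints linearly; if unreached, use highest concentration. Abbreviation: GI50, concentration required for 50% inhibition of growth. TGI marks complete inhibition of growth.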
Legend:
Experiment in all cases: NCI-60 cell line screen, 48 h
MCF7 breast = test system: MCF7 breast
DU-145 prostate = test system: DU-145 prostate
SK-MEL-2 melanoma = test system: SK-MEL-2 melanoma
NCI-H522 lung = test system: NCI-H522 lung
A498 renal = test system: A498 renal
A549 NSCLC = test system: A549 NSCLC
CAKI-1 renal = test system: CAKI-1 renal
SK-OV-3 ovarian = test system: SK-OV-3 ovarian
TK-10 renal = test system: TK-10 renal
K-562 leukemia = test system: K-562 leukemia
OVCAR-4 ovarian = test system: OVCAR-4 ovarian
HCT-116 colon = test system: HCT-116 colon
SN12C renal = test system: SN12C renal
T-47D breast = test system: T-47D breast
CCRF-CEM leukemia = test system: CCRF-CEM leukemia
BT-549 breast = test system: BT-549 breast
MDA-MB-435 = test system: MDA-MB-435
SR leukemia = test system: SR leukemia
SF-268 CNS = test system: SF-268 CNS
PC-3 prostate = test system: PC-3 prostate
HOP-62 NSCLC = test system: HOP-62 NSCLC
SNB-19 CNS = test system: SNB-19 CNS
OVCAR-3 ovarian = test system: OVCAR-3 ovarian
HOP-92 NSCLC = test system: HOP-92 NSCLC
HS 578T breast = test system: HS 578T breast
HL-60(TB) leukemia = test system: HL-60(TB) leukemia
SW-620 colon = test system: SW-620 colon
LOX IMVI melanoma = test system: LOX IMVI melanoma
SF-295 CNS = test system: SF-295 CNS

COc1cccc(NC2=C(Cl)C(=O)N(Cc3ccc(Cl)cc3)C2=O)c1
GI50 (MCF7 breast): 2.09 µM | TGI (MCF7 breast): > 38.8 µM | GI50 (DU-145 prostate): 3.8 µM | TGI (DU-145 prostate): 12.1 µM | GI50 (SK-MEL-2 melanoma): 12.5 µM | TGI (SK-MEL-2 melanoma): > 23.8 µM | GI50 (NCI-H522 lung): 4.76 µM | TGI (NCI-H522 lung): 22.9 µM | GI50 (A498 renal): 11.8 µM | TGI (A498 renal): 27.3 µM | GI50 (A549 NSCLC): 2.67 µM | TGI (A549 NSCLC): 26.8 µM | GI50 (CAKI-1 renal): 2.25 µM | TGI (CAKI-1 renal): 17.5 µM | GI50 (SK-OV-3 ovarian): 8.09 µM | TGI (SK-OV-3 ovarian): 60.6 µM | GI50 (TK-10 renal): 3.45 µM | TGI (TK-10 renal): 27.3 µM | GI50 (K-562 leukemia): 0.801 µM | TGI (K-562 leukemia): > 46.3 µM | GI50 (OVCAR-4 ovarian): 9.69 µM | TGI (OVCAR-4 ovarian): > 71.5 µM | GI50 (HCT-116 colon): 1.59 µM | TGI (HCT-116 colon): 13.5 µM | GI50 (SN12C renal): 2.61 µM | TGI (SN12C renal): 12.9 µM | GI50 (T-47D breast): 10.9 µM | TGI (T-47D breast): > 100 µM | TGI (CCRF-CEM leukemia): > 68.9 µM | GI50 (BT-549 breast): 0.655 µM | TGI (BT-549 breast): 4.18 µM | GI50 (MDA-MB-435): 0.234 µM | TGI (MDA-MB-435): 1.61 µM | GI50 (SR leukemia): 0.261 µM | GI50 (SF-268 CNS): 3.02 µM | TGI (SF-268 CNS): 13.9 µM | GI50 (PC-3 prostate): 1.68 µM | TGI (PC-3 prostate): 10.4 µM | GI50 (HOP-62 NSCLC): 2.4 µM | TGI (HOP-62 NSCLC): 12.3 µM | GI50 (SNB-19 CNS): 8.25 µM | TGI (SNB-19 CNS): > 100 µM | GI50 (OVCAR-3 ovarian): 1.62 µM | TGI (OVCAR-3 ovarian): 7.89 µM | GI50 (HOP-92 NSCLC): 13.1 µM | TGI (HOP-92 NSCLC): 35.4 µM | GI50 (HS 578T breast): 3.21 µM | TGI (HS 578T breast): 13.3 µM | GI50 (HL-60(TB) leukemia): 3.15 µM | TGI (HL-60(TB) leukemia): 60.8 µM | GI50 (SW-620 colon): 0.847 µM | TGI (SW-620 colon): 14.7 µM | GI50 (LOX IMVI melanoma): 1.45 µM | TGI (LOX IMVI melanoma): > 35.3 µM | GI50 (SF-295 CNS): 2.35 µM | TGI (SF-295 CNS): 12.8 µM

From PubChem BioAssay (NCI)
